Key:
[1] = system: WT littermates (C57BL/6J x 129S2/Sv); experiment: Stereotypic counts, co-injection with amphetamine, WT littermates; assay type: in vivo, mice; settings: any dose (2.5, 5, 15 mg/kg) co-injected with amphetamine 2 mg/kg
Experimental: (§1) Experimentally naïve mice, of at least 12 weeks of age, were used for all behavioral experiments. The mice were randomly assigned to treatment or control groups, balanced by sex and weight. Locomotor activity was assessed using the automated locomotor analysis monitors (Omnitech Electronics, Columbus, OH, United States). The apparatus included four open field monitors. Each Open Field monitor consisted of sets of 16 light beams arrayed in the horizontal X and Y axes. The hardware detected beams broken by the animal, which allowed the software to determine the location of the mouse in the cage. Total distance covered by mice was used to characterize locomotor activity of the animals. The monitors were divided into four compartments (20 cm × 20 cm). Animals were tested individually for defined periods with 5-min intervals. The mice were first weighed and then placed into the apparatus, allowing for 30 min habituation. […] The locomotor activity was then measured for additional 1 h. […]
(§2) Supplementary file Image_2.TIF: FIGURE S2 In vivo studies with TAAR1-KO mice and compound 22 on stereotypic counts activity. […] The sum of stereotypic counts was assessed over 60 min after the injection of amphetamine and compound 22 in WT (solid bars) or TAAR1-KO mice (spotted bars). […] The sum of stereotypic counts was assessed over 60 min following the injection in WT (solid bars) or TAAR1-KO mice (dotted bars). […]

[2] = system: WT littermates (C57BL/6J x 129S2/Sv); experiment: Stereotypic counts, co-injection with cocaine, WT littermates; assay type: in vivo, mice; settings: 15 and 25 mg/kg co-injected with cocaine 10 mg/kg
Experimental: as §1, §2

5-HT1E = biological target: T1, 5-HT1E (Homo sapiens, UniProt P28566); experiment: PDSP binding, primary screen
T1 construct: purchased NIMH Psychoactive Drug Screening Program (PDSP), University of North Carolina-Chapel Hill
Experimental: (§3) This was achieved through the identification of potential pharmacological targets of compound 22 using the Psychoactive Drug Screening Program (PDSP) at University of North Carolina-Chapel-Hill. PDSP provides a platform for screening novel psychoactive compounds on human proteins expressed in the central nervous system in order to identify their biological target(s) ([Besnard et al., 2012]). Binding studies were done on 47 targets at a single dose of compound 22 (10 μM; Supplementary Table S1). This primary screen yielded a total of 5 hits for compound 22 (Table 2). These hits were the serotonin, dopamine, and norepinephrine transporters, as well as the sigma 1 and sigma 2 receptors.
(§4) Supplemental Table 1. Compound 22 binding studies from PDSP: primary screen for compound 22 and subsequent hits (50% cut-off, hits highlighted in red). The primary screen was performed by PDSP as described previously (Besnard et al., 2012).

5-HT6 = biological target: T2, 5-HT6 (Homo sapiens, UniProt P50406); experiment: PDSP binding, primary screen
T2 construct: purchased NIMH Psychoactive Drug Screening Program (PDSP), University of North Carolina-Chapel Hill
Experimental: as §3, §4

Alpha1B = biological target: T3, Alpha1B (Homo sapiens, UniProt P35368); experiment: PDSP binding, primary screen
T3 construct: purchased NIMH Psychoactive Drug Screening Program (PDSP), University of North Carolina-Chapel Hill
Experimental: as §3, §4

Alpha1D = biological target: T4, Alpha1D (Homo sapiens, UniProt P25100); experiment: PDSP binding, primary screen
T4 construct: purchased NIMH Psychoactive Drug Screening Program (PDSP), University of North Carolina-Chapel Hill
Experimental: as §3, §4

Alpha2A = biological target: T5, Alpha2A (Homo sapiens, UniProt P08913); experiment: PDSP binding, primary screen
T5 construct: purchased NIMH Psychoactive Drug Screening Program (PDSP), University of North Carolina-Chapel Hill
Experimental: as §3, §4

Beta2 = biological target: T6, Beta2 (Homo sapiens, UniProt P07550); experiment: PDSP binding, primary screen
T6 construct: purchased NIMH Psychoactive Drug Screening Program (PDSP), University of North Carolina-Chapel Hill
Experimental: as §3, §4

D1 = biological target: T7, D1 (Homo sapiens, UniProt P21728); experiment: PDSP binding, primary screen
T7 construct: purchased NIMH Psychoactive Drug Screening Program (PDSP), University of North Carolina-Chapel Hill
Experimental: as §3, §4

D4 = biological target: T8, D4 (Homo sapiens, UniProt P21917); experiment: PDSP binding, primary screen
T8 construct: purchased NIMH Psychoactive Drug Screening Program (PDSP), University of North Carolina-Chapel Hill
Experimental: as §3, §4

H2 = biological target: T9, H2 (Homo sapiens, UniProt P25021); experiment: PDSP binding, primary screen
T9 construct: purchased NIMH Psychoactive Drug Screening Program (PDSP), University of North Carolina-Chapel Hill
Experimental: as §3, §4

M3 = biological target: T10, M3 (Homo sapiens, UniProt P20309); experiment: PDSP binding, primary screen
T10 construct: purchased NIMH Psychoactive Drug Screening Program (PDSP), University of North Carolina-Chapel Hill
Experimental: as §3, §4

Dopamine Transporter = Dopamine Transporter (Homo sapiens, UniProt Q01959); experiment: Fluorescent dopamine uptake assay in HEK293 cells stably expressing human HA-DAT; assay type: cell-based; parameters: expressed in transfected cells
Experimental: Fluorescent dopamine uptake assay kits were purchased from Molecular Devices (Sunnyvale, CA; catalog #: R6138). Stable cells expressing human HA-DAT were seeded on poly-D-lysine treated, black clear-bottom 96-well plates (Corning Catalog #: 3603) at a density of 1 × 10^5 cells/well, and incubated for 24 h prior to the start of the uptake experiment. […] The plates were then incubated for 30 min at 37°C. Following incubation, 100 μL of dye solution was added and fluorescence intensity was measured for 30 min at 37°C using the SpectraMax M3 (Molecular Devices, excitation: 440 nm, emission: 520 nm). The rate of reaction (slope of the curve in the linear range) was taken as the readout for the assay.
Data analyses were performed with Graphpad Prism 5.01 (GraphPad Software, Inc., La Jolla, CA). Linear regression analysis was used to quantify fluorescent dopamine transporter uptake activity. Dose response curves were fitted with non-linear curve fitting. Two-tailed Student’s t-tests or one-way ANOVA analysis with Dunnett’s post hoc correction was used where appropriate to determine differences between data sets.
The ability of compound 22 to directly disrupt uptake activity was assessed with a fluorescent uptake assay.
Error bars represent standard error of mean at N = 3.

Sequence of Dopamine Transporter (Q01959 with tags, fused parts or gaps H193Y/G195Y/DEL197-198/G199V/D200P/S201D/S202Y/G203A): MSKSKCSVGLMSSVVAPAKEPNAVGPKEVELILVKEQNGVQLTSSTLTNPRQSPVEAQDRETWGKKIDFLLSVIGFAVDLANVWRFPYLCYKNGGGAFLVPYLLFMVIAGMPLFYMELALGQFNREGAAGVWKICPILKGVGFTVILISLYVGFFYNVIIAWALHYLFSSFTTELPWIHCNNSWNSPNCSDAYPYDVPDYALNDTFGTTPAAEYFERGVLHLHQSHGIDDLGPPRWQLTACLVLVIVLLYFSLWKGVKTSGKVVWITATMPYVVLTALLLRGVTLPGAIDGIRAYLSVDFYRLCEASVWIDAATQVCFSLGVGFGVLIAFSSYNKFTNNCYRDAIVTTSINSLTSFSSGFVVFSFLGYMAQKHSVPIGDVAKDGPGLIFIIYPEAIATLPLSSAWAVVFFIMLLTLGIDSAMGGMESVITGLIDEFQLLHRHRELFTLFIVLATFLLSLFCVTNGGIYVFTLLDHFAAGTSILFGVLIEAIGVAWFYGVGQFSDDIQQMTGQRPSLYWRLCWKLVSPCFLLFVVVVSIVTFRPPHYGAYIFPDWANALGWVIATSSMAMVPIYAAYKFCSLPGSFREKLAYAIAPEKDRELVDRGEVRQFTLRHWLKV
T4 sequence (P25100 whole entry): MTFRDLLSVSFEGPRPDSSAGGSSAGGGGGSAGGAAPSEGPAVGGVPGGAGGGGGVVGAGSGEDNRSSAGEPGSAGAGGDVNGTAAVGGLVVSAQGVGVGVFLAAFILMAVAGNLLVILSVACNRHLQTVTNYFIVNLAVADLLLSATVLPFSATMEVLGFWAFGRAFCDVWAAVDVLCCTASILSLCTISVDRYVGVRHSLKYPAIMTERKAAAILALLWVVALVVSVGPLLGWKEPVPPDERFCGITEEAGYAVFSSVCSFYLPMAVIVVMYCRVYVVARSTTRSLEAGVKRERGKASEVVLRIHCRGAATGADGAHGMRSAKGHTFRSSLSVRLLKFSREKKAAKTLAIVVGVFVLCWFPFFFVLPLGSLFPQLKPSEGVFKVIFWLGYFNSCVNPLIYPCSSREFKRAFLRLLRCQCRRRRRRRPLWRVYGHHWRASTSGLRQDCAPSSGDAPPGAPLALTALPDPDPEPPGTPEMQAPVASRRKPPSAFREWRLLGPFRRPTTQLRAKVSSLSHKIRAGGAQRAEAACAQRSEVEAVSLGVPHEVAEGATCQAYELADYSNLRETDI
T7 sequence (P21728 whole entry): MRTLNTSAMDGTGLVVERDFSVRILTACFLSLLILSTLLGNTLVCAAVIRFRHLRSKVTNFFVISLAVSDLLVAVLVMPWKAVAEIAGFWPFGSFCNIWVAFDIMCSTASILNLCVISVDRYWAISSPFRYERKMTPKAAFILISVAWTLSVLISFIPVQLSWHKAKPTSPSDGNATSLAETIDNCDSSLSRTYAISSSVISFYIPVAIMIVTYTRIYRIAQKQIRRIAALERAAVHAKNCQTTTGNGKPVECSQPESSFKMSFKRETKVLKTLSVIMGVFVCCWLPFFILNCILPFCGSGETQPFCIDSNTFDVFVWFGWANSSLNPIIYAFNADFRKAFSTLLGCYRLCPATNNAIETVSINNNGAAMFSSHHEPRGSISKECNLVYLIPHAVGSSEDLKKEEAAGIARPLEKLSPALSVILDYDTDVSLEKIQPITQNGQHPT
T10 sequence (P20309 whole entry): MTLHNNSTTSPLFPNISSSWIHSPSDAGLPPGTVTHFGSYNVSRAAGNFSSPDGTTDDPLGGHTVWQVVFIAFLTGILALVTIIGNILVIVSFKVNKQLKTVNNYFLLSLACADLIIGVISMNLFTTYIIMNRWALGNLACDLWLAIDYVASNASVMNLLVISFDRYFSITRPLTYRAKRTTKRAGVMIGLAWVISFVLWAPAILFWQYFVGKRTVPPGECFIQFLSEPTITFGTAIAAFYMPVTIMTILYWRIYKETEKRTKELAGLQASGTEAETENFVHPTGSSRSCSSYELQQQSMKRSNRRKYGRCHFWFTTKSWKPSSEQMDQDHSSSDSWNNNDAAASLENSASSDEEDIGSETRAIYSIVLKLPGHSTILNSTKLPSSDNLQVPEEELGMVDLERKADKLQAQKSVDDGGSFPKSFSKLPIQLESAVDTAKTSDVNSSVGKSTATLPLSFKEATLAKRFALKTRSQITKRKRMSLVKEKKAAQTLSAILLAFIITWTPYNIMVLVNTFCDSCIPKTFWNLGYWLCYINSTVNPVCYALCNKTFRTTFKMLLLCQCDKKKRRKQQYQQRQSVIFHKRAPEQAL
T1 sequence (P28566 whole entry): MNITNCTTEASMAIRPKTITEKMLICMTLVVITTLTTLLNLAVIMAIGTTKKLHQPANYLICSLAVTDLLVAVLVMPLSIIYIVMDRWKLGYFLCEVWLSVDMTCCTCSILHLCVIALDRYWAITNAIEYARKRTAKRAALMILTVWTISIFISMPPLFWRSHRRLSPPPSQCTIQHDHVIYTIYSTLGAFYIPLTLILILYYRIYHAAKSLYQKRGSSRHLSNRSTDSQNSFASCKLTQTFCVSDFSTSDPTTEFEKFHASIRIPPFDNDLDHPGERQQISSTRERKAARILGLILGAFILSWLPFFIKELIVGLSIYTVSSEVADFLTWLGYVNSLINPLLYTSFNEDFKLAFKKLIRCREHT
T6 sequence (P07550 whole entry): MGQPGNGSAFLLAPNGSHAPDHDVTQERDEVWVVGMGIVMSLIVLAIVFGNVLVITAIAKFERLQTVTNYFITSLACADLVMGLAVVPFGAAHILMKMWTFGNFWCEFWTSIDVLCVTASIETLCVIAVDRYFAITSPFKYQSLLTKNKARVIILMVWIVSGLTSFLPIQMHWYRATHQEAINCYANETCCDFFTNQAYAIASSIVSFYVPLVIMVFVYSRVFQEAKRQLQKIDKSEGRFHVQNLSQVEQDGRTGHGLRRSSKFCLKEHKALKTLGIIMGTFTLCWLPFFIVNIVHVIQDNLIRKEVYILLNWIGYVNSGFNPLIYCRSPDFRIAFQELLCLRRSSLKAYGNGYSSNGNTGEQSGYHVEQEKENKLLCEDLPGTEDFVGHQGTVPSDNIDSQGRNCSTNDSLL
T2 sequence (P50406 whole entry): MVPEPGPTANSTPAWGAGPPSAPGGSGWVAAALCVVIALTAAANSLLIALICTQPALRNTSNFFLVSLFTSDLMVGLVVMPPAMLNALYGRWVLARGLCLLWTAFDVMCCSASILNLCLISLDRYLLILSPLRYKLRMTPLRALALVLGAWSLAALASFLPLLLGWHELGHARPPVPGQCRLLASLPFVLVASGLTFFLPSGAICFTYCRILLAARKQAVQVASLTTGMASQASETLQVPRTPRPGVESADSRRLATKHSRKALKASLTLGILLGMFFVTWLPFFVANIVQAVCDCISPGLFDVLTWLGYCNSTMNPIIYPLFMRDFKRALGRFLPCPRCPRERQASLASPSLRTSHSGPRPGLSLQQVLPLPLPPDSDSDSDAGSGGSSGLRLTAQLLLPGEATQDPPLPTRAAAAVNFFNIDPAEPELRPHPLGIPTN
T3 sequence (P35368 whole entry): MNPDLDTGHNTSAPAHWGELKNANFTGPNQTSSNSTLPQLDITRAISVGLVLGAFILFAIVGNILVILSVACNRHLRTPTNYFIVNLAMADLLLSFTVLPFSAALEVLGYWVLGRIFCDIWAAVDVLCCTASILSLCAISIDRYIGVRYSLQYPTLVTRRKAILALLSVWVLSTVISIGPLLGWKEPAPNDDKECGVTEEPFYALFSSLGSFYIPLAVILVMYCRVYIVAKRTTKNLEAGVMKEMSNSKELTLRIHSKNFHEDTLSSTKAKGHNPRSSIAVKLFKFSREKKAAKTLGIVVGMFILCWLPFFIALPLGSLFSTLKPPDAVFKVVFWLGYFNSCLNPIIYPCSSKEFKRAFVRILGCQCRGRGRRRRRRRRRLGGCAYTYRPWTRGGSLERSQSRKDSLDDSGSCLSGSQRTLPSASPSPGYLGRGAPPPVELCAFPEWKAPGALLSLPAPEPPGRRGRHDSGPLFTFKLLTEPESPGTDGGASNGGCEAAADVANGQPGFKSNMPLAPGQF
T9 sequence (P25021 whole entry): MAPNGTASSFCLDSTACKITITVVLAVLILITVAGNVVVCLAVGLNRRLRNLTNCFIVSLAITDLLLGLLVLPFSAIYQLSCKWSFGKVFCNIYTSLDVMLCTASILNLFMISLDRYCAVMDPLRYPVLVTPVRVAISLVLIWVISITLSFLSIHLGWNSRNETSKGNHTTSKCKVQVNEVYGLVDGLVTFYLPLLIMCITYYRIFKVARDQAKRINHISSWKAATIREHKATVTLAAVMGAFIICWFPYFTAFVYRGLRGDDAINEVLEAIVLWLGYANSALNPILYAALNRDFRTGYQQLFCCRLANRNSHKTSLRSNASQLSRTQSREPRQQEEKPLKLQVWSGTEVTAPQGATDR
T8 sequence (P21917 whole entry): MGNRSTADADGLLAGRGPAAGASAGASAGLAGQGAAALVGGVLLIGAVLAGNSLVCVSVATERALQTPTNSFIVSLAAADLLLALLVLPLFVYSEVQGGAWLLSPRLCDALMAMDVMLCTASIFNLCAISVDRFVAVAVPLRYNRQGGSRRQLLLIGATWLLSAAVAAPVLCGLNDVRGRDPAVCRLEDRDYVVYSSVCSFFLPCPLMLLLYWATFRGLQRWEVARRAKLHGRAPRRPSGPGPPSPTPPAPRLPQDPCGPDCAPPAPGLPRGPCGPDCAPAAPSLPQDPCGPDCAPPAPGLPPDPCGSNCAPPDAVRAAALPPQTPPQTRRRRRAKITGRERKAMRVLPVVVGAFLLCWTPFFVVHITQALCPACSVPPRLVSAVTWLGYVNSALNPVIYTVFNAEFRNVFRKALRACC

## Clc1ccc(CNCc2ccc(Cn3cncn3)cc2)c(Cl)c1 [compound 22]
[1]
  stereotypic counts: did not have statistically enhanced stereotypic counts
[2]
  stereotypic counts: enhanced stereotypic counts
5-HT1E
  inhibition at 10 µM: -1.7%
5-HT6
  inhibition at 10 µM: 4.6%
Alpha1B
  inhibition at 10 µM: 12.8%
Alpha1D
  inhibition at 10 µM: 11.6%
Alpha2A
  inhibition at 10 µM: 32.4%
Beta2
  inhibition at 10 µM: -0.6%
D1
  inhibition at 10 µM: 16.1%
D4
  inhibition at 10 µM: 17.6%
H2
  inhibition at 10 µM: 45.2%
M3
  inhibition at 10 µM: 15.5%
Dopamine Transporter; HEK293 cells stably expressing human HA-DAT, increasing doses
  effect on dopamine uptake activity: no effect on dopamine uptake activity
Dopamine Transporter; co-treatment with 1, 10 and 100 μM compound 22
  effect on cocaine dose response inhibition of dopamine uptake: did not alter
